Results published in US7897788B2, “Indol-1-yl-acetic acid derivatives” (Actelion Pharmaceutical Ltd., priority 2004, dated 2011).

Columns and labels:
hCRTH2 receptor [1] = biological target: T1, hCRTH2 receptor (Homo sapiens, UniProt Q9Y5Y4); experiment: Intracellular calcium mobilization assay (FLIPR), Example B-2; assay type: cell-based; settings: HEK-293 cells expressing hCRTH2; 10 nM prostaglandin D2 as agonist; read-out: CRTH2 FLIPR IC50 (nM) (method B2 above)
T1 construct: expressed in transfected cells
T1 sequence (Q9Y5Y4 1-395): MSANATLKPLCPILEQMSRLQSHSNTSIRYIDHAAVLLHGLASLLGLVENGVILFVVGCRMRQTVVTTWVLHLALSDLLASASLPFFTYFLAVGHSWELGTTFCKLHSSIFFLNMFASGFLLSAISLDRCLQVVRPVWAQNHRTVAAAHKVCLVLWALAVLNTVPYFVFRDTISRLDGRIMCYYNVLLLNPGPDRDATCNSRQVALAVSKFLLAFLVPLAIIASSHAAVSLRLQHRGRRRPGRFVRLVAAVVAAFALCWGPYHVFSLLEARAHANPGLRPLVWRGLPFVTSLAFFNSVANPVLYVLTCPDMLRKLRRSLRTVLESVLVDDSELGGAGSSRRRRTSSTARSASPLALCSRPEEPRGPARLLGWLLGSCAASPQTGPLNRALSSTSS
Method: A functional assay with cells expressing the human CRTH2 receptor may be used to detect changes in the levels of intracellular calcium concentration following compound treatment. After addition of the compound the cells are challenged with PGD2. In a Fluorescent Imaging Plate Reader (FLIPR™, Molecular Devices, Sunnyvale, Calif.) fluorescence emission is recorded during both additions, emission peak values above base level after PGD2 addition were exported, normalized to low controls (no PGD2) and high controls (no active compound). The relative values of the remaining activity were used to determine IC50 values by curve fitting the data to a single site to a four-parameter logistic sigmoid dose response curve of the equation (A+((B−A)/(1+((C/x)^D)))).
The ability of the compounds to antagonize PGD2 induced change of intracellular calcium levels via CRTH2 activation may be measured by methods known of one skilled in the art or by the method described below in Example B-2.
Cells (HEK-293), stably expressing the hCRTH2 receptor under the control of the cytomegalovirus promotor from a single insertion of the expression vector pcDNA5 (Invitrogen), are grown to confluency in DMEM (low glucose, Gibco) medium supplemented with 10% fetal calf serum (both Bioconcept, Switzerland) under standard mammalian cell culture conditions (37° C. in a humidified atmosphere of 5% CO2). Cells are detached from culture dishes using a dissociation buffer (0.02% EDTA in PBS, Gibco) for 1 min, and collected by centrifugation at 200 g at rt for 5 min in assay buffer (equal parts of Hank's BSS (HBSS, Bioconcept) and DMEM (low glucose, without phenol red, Gibco)). After incubation for 45 min (37° C. and 5% CO2) in the presence of 1 μM Fluo-4 and 0.04% Pluronic F-127 (both Molecular Probes), 20 mM HEPES (Gibco) in assay buffer, the cells are washed with and resuspended in assay buffer, then seeded onto 384-well FLIPR assay plates (Greiner) at 50,000 cells in 66 μl per well), and sedimented by centrifugation.
Stock solutions of test compounds are made up at a concentration of 10 mM in DMSO, and serially diluted in assay buffer to concentrations required for inhibition dose response curves. Prostaglandin D2 (Biomol, Plymouth Meeting, Pa.) is used as an agonist.
A FLIPR384 instrument (Molecular Devices) is operated according to the manufacturer's standard instructions, adding 4 μl of test compound dissolved at 10 mM in DMSO and diluted prior to the experiment in assay buffer to obtain the desired final concentration. 10 μl of 80 nM prostaglandin D2 (Biomol, Plymouth Meeting, Pa.) in assay buffer, supplemented with 0.8% bovine serum albumin (fatty acid content<0.02%, Sigma), is then added to obtain a final concentration of 10 nM and 0.1%, respectively. Changes in fluorescence are monitored before and after the addition of test compounds at λex=488 nm and λem=540 nm. Emission peak values above base level after prostaglandin D2 addition are exported after base line subtraction. Values are normalized to high-level control (no test compound added) after subtraction of base line value (no prostaglandin D2 added). The program XLlfit 3.0 (IDBS) is used to fit the data to a single site dose response curve of the equation (A+((B−A)/(1+((C/x)^D)))) and to calculate the IC50 values.

hCRTH2 receptor [2] = biological target: T1, hCRTH2 receptor; experiment: CRTH2 membranes radioligand binding assay ({3H}-PGD2), Example B-1; settings: {3H}-PGD2 radioligand binding, read-out: CRTH2 binding IC50 (nM) (method B1 above)
Method: The ability of the compounds of formula I, IC1, IC2 or IP to bind to the CRTH2 receptor may be measured by methods similar to those described in Sawyer N. et al., Br. J. Pharmacol. (2002), 137, 1163-1172 and by the method described below in Example B-1.
Preparation of the membranes and radioligand binding assays are performed according to known procedures, e.g. Sawyer N. et al. (Br. J. Pharmacol., 2002, 137, 1163-1172). A clonal HEK 293 cell line, expressing high level of recombinant hCRTH2 receptor, is selected for the preparation of membranes. Cells are detached from culture plates in 5 ml buffer A per plate (5 mM Tris, 1 mM MgCl2x6H2O, 0.1 mM PMSF, 0.1 mM phenanthroline) using a police rubber and transferred into centrifugation tubes and frozen at −80° C. After thawing, the cells are centrifuged at 500 g for 5 min and then resuspended in buffer A. Cells are then fragmented by homogenization with a Polytron homogenizer for 30 s. The membrane fragments are centrifuged at 3000 g for 40 min and resuspended in membranes in buffer B (50 mM Tris, 25 mM MgCl2, 250 mM saccharose, pH 7.4) and aliquots are stored frozen.
Binding assay is performed in a total volume of 250 μl. In each well, 75 μl buffer C (50 mM Tris, 100 mM NaCl, 1 mM EDTA, 0.1% BSA (protease free), 0.01% NaN3, pH 7.4) was mixed with 50 μl {^3H}-PGD2 (at 2.5 nM (220.000 dpm per well) from Amersham, TRK734), 100 μl CRTH2 membranes to give 80 μg per well and 25 μl of test compound in buffer C containing 1% DMSO. For unspecific binding, PGD2 is added to the reaction mixture at 1 μM final concentration. This binding assay mix is incubated at rt for 90 min and then filtered through a GF/C filter plate. The filter is washed three times with ice cold binding buffer. Then, 40 μl per well Microscint-40 (Packard) are added and the bound radioactivity is quantified by means of Topcount (Packard).

IC50 (hCRTH2 receptor [1]) [nM]	IC50 (hCRTH2 receptor [2]) [nM]	SMILES
146	35	N#C/C(=C\c1cn(CC(=O)O)c2ccccc12)C(=O)Nc1ccccc1Oc1ccc(Cl)cc1Cl [Example 49, (3-{(E)-2-cyano-2-[2-(2,4-dichloro-phenoxy)-phenylcarbamoyl]-vinyl}-indol-1-yl)-acetic acid]
182	15	CN(C(=O)/C(C#N)=C/c1cn(CC(=O)O)c2ccccc12)c1cccc(Cl)c1 [Example 101, (3-{(E)-2-[(3-chloro-phenyl)-methyl-carbamoyl]-2-cyano-vinyl}-indol-1-yl)-acetic acid]
159	16	N#C/C(=C\c1cn(CC(=O)O)c2ccccc12)C(=O)N(CC(=O)O)c1ccccc1 [Example 99, {3-[(E)-2-(carboxymethyl-phenyl-carbamoyl)-2-cyano-vinyl]-indol-1-yl}-acetic acid]
253	49	Cc1ccc2c(/C=C(\C#N)C(=O)N3Cc4ccccc4Cc4ccccc43)cn(CC(=O)O)c2c1 [Example 149, {3-[(E)-2-cyano-3-(6,11-dihydro-dibenzo[b,e]azepin-5-yl)-3-oxo-propenyl]-6-methyl-indol-1-yl}-acetic acid]
48	7	COc1ccc(N(C)C(=O)/C(C#N)=C/c2cn(CC(=O)O)c3ccccc23)cc1 [Example 45, (3-{(E)-2-cyano-2-[(4-methoxy-phenyl)-methyl-carbamoyl]-vinyl}-indol-1-yl)-acetic acid]
47	17	CN(C(=O)/C(C#N)=C/c1cn(CC(=O)O)c2ccc(F)cc12)c1ccccc1C(F)(F)F [Example 141, (3-{(E)-2-cyano-2-[methyl-(2-trifluoromethyl-phenyl)-carbamoyl]-vinyl}-5-fluoro-indol-1-yl)-acetic acid]
151	42	N#C/C(=C\c1cn(CC(=O)O)c2ccccc12)C(=O)Nc1ccccc1Cc1ccccc1 [Example 29, {3-[(E)-2-(2-benzyl-phenylcarbamoyl)-2-cyano-vinyl]-indol-1-yl}-acetic acid]
90	29	N#C/C(=C\c1cn(CC(=O)O)c2ccccc12)C(=O)N(Cc1ccccc1)c1ccccc1 [Example 12, {3-[(E)-2-(benzyl-phenyl-carbamoyl)-2-cyano-vinyl]-indol-1-yl}-acetic acid]
61	11	CN(C(=O)/C(C#N)=C/c1cn(CC(=O)O)c2ccccc12)c1ccccc1 [Example 46, {3-[(E)-2-cyano-2-(methyl-phenyl-carbamoyl)-vinyl]-indol-1-yl}-acetic acid]
66	9	N#C/C(=C\c1cn(CC(=O)O)c2ccccc12)C(=O)N1c2ccccc2Sc2ccc(Cl)cc21 [Example 113, {3-[(E)-3-(2-chloro-phenothiazin-10-yl)-2-cyano-3-oxo-propenyl]-indol-1-yl}-acetic acid]
54	9	N#C/C(=C\c1cn(CC(=O)O)c2ccccc12)C(=O)N1CCCc2ccccc21 [Example 47, {3-[(E)-2-cyano-3-(3,4-dihydro-2H-quinolin-1-yl)-3-oxo-propenyl]-indol-1-yl}-acetic acid]
57	12	N#C/C(=C\c1cn(CC(=O)O)c2ccccc12)C(=O)N1c2ccccc2C=Cc2ccccc21 [Example 87, sodium [3-((E)-2-cyano-3-dibenzo[b,f]azepin-5-yl-3-oxo-propenyl)-indol-1-yl]-acetate]
61	40	COc1ccc(Cl)cc1NC(=O)/C(C#N)=C/c1cn(CC(=O)O)c2ccccc12 [Example 64, {3-[(E)-2-(5-chloro-2-methoxy-phenylcarbamoyl)-2-cyano-vinyl]-indol-1-yl}-acetic acid]
181	10	CC(=O)c1ccc(N(C)C(=O)/C(C#N)=C/c2cn(CC(=O)O)c3ccccc23)cc1 [Example 94, (3-{(E)-2-[(4-acetyl-phenyl)-methyl-carbamoyl]-2-cyano-vinyl}-indol-1-yl)-acetic acid]
58	76	Cc1ccc(NC(=O)/C(C#N)=C/c2cn(CC(=O)O)c3ccccc23)cc1Br [Example 70, {3-[(E)-2-(3-bromo-4-methyl-phenylcarbamoyl)-2-cyano-vinyl]-indol-1-yl}-acetic acid]
114	6	N#C/C(=C\c1cn(CC(=O)O)c2ccccc12)C(=O)N1Cc2ccccc2Cc2ccccc21 [Example 89, {3-[(E)-2-cyano-3-(6,11-dihydro-dibenzo[b,e]azepin-5-yl)-3-oxo-propenyl]-indol-1-yl}-acetic acid]
98	18	N#C/C(=C\c1cn(CC(=O)O)c2ccccc12)C(=O)Nc1cccc(C(=O)c2ccccc2)c1 [Example 54, {3-[(E)-2-(3-benzoyl-phenylcarbamoyl)-2-cyano-vinyl]-indol-1-yl}-acetic acid]
